Laboratory results taken from the supplement of paper PMC10307832.

Assays:
Experiment in all cases: relative viability (nuclei count vs DMSO), 5 days (fraction); higher = more cells survive
[1] = compound: CC[C@@H](C)CNCC(=O)N1CCC2=C([C@@H]1COC3=CC=CC(=C3)C)C=CS2 [RU-SKI 43] + CC(=O)Nc1cccc(-n2c(=O)n(C3CC3)c(=O)c3c(Nc4ccc(I)cc4F)n(C)c(=O)c(C)c32)c1 [Trametinib] (partner 0.02 µM)
Outline: (§1)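 Lung cancer cell lines in 1536-well plates got either a single drug or a fixed anchor-drug dose together with five library-drug doses (not always all listed) in √10 steps, by pin tool, on the day after seeding. Nuclei were counted after 5 days, and relative viability is the treated-to-vehicle ratio of nuclei counts. Values are medians of duplicate plates.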

[2] = compound: CC[C@@H](C)CNCC(=O)N1CCC2=C([C@@H]1COC3=CC=CC(=C3)C)C=CS2 [RU-SKI 43] + C[C@@H](Oc1cc(-c2cnn(C3CCNCC3)c2)cnc1N)c1c(Cl)ccc(F)c1Cl [Crizotinib] (partner 1 µM)
Outline: as §1

[3] = compound: CCc1c2c(nc3ccc(OC(=O)N4CCC(N5CCCCC5)CC4)cc13)-c1cc3c(c(=O)n1C2)COC(=O)[C@]3(O)CC [Irinotecan] + O=C(c1cc(Cc2n[nH]c(=O)c3ccccc23)ccc1F)N1CCN(C(=O)C2CC2)CC1 [Olaparib] (partner 8 µM)
Outline: as §1

[4] = compound: CCc1c2c(nc3ccc(OC(=O)N4CCC(N5CCCCC5)CC4)cc13)-c1cc3c(c(=O)n1C2)COC(=O)[C@]3(O)CC [Irinotecan] + CS(=O)(=O)N1CCN(Cc2cc3nc(-c4cccc5[nH]ncc45)nc(N4CCOCC4)c3s2)CC1 [Pictilisib] (partner 1 µM)
Outline: as §1

Cell Line	relative viability ([1]; first compound 0.1 µM)	relative viability ([1]; first compound 0.3162 µM)	relative viability ([1]; first compound 1 µM)	relative viability ([1]; first compound 3.162 µM)	relative viability ([1]; first compound 10 µM)	relative viability ([2]; first compound 0.1 µM)	relative viability ([2]; first compound 0.3162 µM)	relative viability ([2]; first compound 1 µM)	relative viability ([2]; first compound 3.162 µM)	relative viability ([2]; first compound 10 µM)	relative viability ([3]; first compound 2 µM)	relative viability ([3]; first compound 6.325 µM)	relative viability ([3]; first compound 20 µM)	relative viability ([4]; first compound 0.6325 µM)	relative viability ([4]; first compound 2 µM)	relative viability ([4]; first compound 6.325 µM)	relative viability ([4]; first compound 20 µM)	relative viability ([3]; first compound 0.6325 µM)
HOP-62	0.358	0.428	0.374	0.405	0.314	0.7	1.01	1.09	0.829	0.977	0.201	0.147	0.169	0.239	0.261	0.13	0.269	
NCI-H2405	0.645	0.681	0.612	0.713	0.581	0.863	0.933	0.811	0.852	0.807	0.495	0.256	0.0989		0.477	0.326	0.132	
A-427	0.718	0.694	0.788	0.744	0.706	0.832	0.809	0.904		0.651	0.551	0.271	0.104		0.392	0.19	0.225	0.718
LCLC-97TM1	0.193	0.246	0.256	0.187	0.148	0.424		0.331	0.267	0.287	0.144	0.0736	0.13	0.12	0.219	0.167	0.279	0.0852
NCI-H3122	0.244	0.233	0.241	0.252	0.259	0.256	0.257	0.249	0.287	0.244	0.201	0.16	0.14	0.514	0.349	0.202	0.174	0.217
